From patent US12310973B2, “Administration and dosage of diaminophenothiazines” (WisTa Laboratories Ltd., priority 2016, dated 2025)

Tested on: mild to moderate AD patients
Assay: Phase 3 trial in mild to moderate AD: ADAS-cog change from baseline
Assay type: in vivo, human
Source text: The co-primary efficacy outcomes were change from baseline in 11-item Alzheimer's Disease Assessment Scale—cognitive subscale (ADAS-cog) and the 23-item Alzheimer's Disease Cooperative Study Activities of Daily Living (ADCS-ADL). Magnetic resonance imaging (MRI) volumetry was chosen as the principal secondary outcome to support a potential effect on the rate of brain atrophy (Fox et al., 1997; Ridha et al., 2008). Change in Lateral Ventricular Volume (LVV), as measured by the Ventricular Boundary Shift Integral (VBSI), (Salloway et al., 2014) was chosen as the principal measure as it provides high-contrast boundaries for measurement and is less affected by motion artefacts than whole brain or smaller structures. Key supportive topographical measures (temporo-parietal (TPV) and hippocampal volume (HV)) are also reported.
Patients were recruited at 115 sites across 16 countries between January 2013 and August 2014. Enrolment of approximately 833 patients was targeted, with 891 patients actually recruited, in order to obtain data on approximately 500 patients completing the study, assuming a 30-40% drop-out rate. […] Adult caregiver(s) were required to participate. Concomitant use of AChEIs and/or memantine was permitted, provided the patient had been taking the medication(s) for […], with no changes to the dosage for 26 weeks prior to screening. Concomitant use of serotonergic antidepressant medication was permitted, but patients were monitored closely using a targeted rating scale derived from 4 published diagnostic criteria (Alusik et al., 2014) due to a theoretical potential for serotonin syndrome (Ramsay et al., 2007). […] Because MT^+ in high doses can induce methaemoglobinaemia, subjects with glucose-6-phosphate dehydrogenase deficiency or who were otherwise at haematological risk were excluded. Other inclusion/exclusion criteria are provided in the Supplementary Materials.
Patients were randomised at baseline to LMTM 75 mg b.i.d. or 125 mg b.i.d. (expressed as MT base equivalent) or control in a 3:3:4 ratio. The randomisation was stratified according to geographical region (3 levels: North America, Europe, rest of world), use of AD-labelled co-medications (2 levels, using or not using) and severity (2 levels, moderate MMSE 14-19 inclusive, mild MMSE 20-26 inclusive). Patients in the control arm received a dose of 4 mg b.i.d. to maintain blinding.
ADAS-cog and ADCS-ADL assessments were performed at baseline and every 13 weeks thereafter, with change at 65 weeks (the final on-treatment visit) the primary efficacy measures. These were repeated at the final off-treatment follow-up visit at Week 69. Secondary efficacy measures included Clinical Global Impression of Change (ADCS-CGIC, administered by an independent rater); MMSE, administered on screening and at Weeks 26, 52, 65 and 69. Brain MRI scans were performed at baseline/screening and every 13 weeks using a standardized protocol including volumetric 3D T1-weighted data consistent with ADNI recommendations, FLAIR, T2* Gradient Echo and T2-weighted sequences. Diffusion-Weighted Imaging was also available at screening in order to exclude patients with co-existing pathology that would lead to a diagnosis other than probable AD. Each site was first qualified ensuring standardised acquisition protocol, patient handling and data management. MRI data were centrally collected by Imaging Corelab (Bioclinica). Data were centrally reviewed by RadMD for eligibility and safety (Amyloid Related Imaging Abnormalities, or ARIA monitoring) on an on-going basis. Volumetric 3DT1 data were also reviewed centrally in order to measure (using a boundary shift integral (BSI) technique; Salloway et al., 2014) change in LVV as principal secondary outcome measure, and as exploratory endpoints temporo-parietal volume (TPV), whole brain volume (WBV) and hippocampal volume (HV, estimated as the mean of left and right) (Wischik et al., 2016). […]

SMILES: CN(C)c1ccc2c(c1)Sc1cc(N(C)C)ccc1N2 [LMTM, leuco-methythioninium bis(hydromethanesulfonate)]
- ADAS-cog treatment effect as % of the decline over 65 weeks seen in the control arm (mean±SE) (75 mg b.i.d. monotherapy, 65 weeks): 103%±23%
- ADAS-cog treatment effect as % of the decline over 65 weeks seen in the control arm (mean±SE) (125 mg b.i.d. monotherapy, 65 weeks): 83%±23%
- ADAS-cog, Estimate (change from baseline) (Table 2 primary analysis, 65 weeks, covariates additive, control arm (LMTM 4 mg b.i.d.)): 6.32 ADAS-cog units
- ADAS-cog, Estimate (difference with respect to control) (Table 2 primary analysis, 65 weeks, 75 mg b.i.d.): −0.02 ADAS-cog units
- ADAS-cog, Estimate (difference with respect to control) (Table 2 primary analysis, 65 weeks, 125 mg b.i.d.): −0.43 ADAS-cog units
- ADAS-cog, Estimate (mean additive treatment benefit) (Table 2 primary analysis, 65 weeks, patients not using AChEI/Mem (additive covariate)): −2.30 ADAS-cog units
- ADAS-cog, Estimate (difference vs control) (Table 3, AChEI/Mem as interaction term, 65 weeks, 75 mg b.i.d. + AChEI/Mem): 1.02 ADAS-cog units
- ADAS-cog, Estimate (difference vs control) (Table 3, AChEI/Mem as interaction term, 65 weeks, 75 mg b.i.d. monotherapy): −6.25 ADAS-cog units
- ADAS-cog, Estimate (difference vs control) (Table 3, AChEI/Mem as interaction term, 65 weeks, 125 mg b.i.d. + AChEI/Mem): 0.50 ADAS-cog units
- ADAS-cog, Estimate (difference vs control) (Table 3, AChEI/Mem as interaction term, 65 weeks, 125 mg b.i.d. monotherapy): −5.79 ADAS-cog units
- ADAS-cog, Estimate (change from baseline) (Table 3, AChEI/Mem as interaction term, 65 weeks, control arm (4 mg b.i.d.)): 5.98 ADAS-cog units
- ADAS-cog, Estimate (change from baseline) (Table 4 post-hoc, control-arm subjects, 4 mg b.i.d. + AChEI/Mem): 6.79 ADAS-cog units
- ADAS-cog, Estimate (difference) (Table 4 post-hoc, control-arm subjects, 4 mg b.i.d. monotherapy vs 4 mg b.i.d. + AChEI/Mem): −5.90 ADAS-cog units
- ADAS-cog, Estimate (change from baseline) (Table 7, mild AD, 4 mg b.i.d. + AChEI/Mem (control-arm subjects)): 3.24 ADAS-cog units
- ADAS-cog, Estimate (difference) (Table 7, mild AD, 4 mg b.i.d. alone vs 4 mg b.i.d. + AChEI/Mem): −6.41 ADAS-cog units
- ADAS-cog, Estimate (difference) (Table 7, mild AD, 75 mg b.i.d. alone vs control arm as randomised): −8.89 ADAS-cog units
- ADAS-cog, Estimate (difference) (Table 7, mild AD, 125 mg b.i.d. alone vs control arm as randomised): −5.03 ADAS-cog units
- ADAS-cog, Estimate (change from baseline) (Table 7, mild AD, control arm as randomised (4 mg b.i.d.)): 2.27 ADAS-cog units
- ADAS-cog, Estimate (change from baseline) (Table 7, moderate AD, 4 mg b.i.d. + AChEI/Mem (control-arm subjects)): 8.49 ADAS-cog units
- ADAS-cog, Estimate (difference) (Table 7, moderate AD, 4 mg b.i.d. alone vs 4 mg b.i.d. + AChEI/Mem): −4.74 ADAS-cog units
- ADAS-cog, Estimate (difference) (Table 7, moderate AD, 75 mg b.i.d. alone vs control arm as randomised): −2.01 ADAS-cog units
- ADAS-cog, Estimate (difference) (Table 7, moderate AD, 125 mg b.i.d. alone vs control arm as randomised): −5.75 ADAS-cog units
- ADAS-cog, Estimate (change from baseline) (Table 7, moderate AD, control arm as randomised (4 mg b.i.d.)): 7.89 ADAS-cog units
- ADAS-cog decline at 12 months (mean±se) (control arm (LMTM 4 mg b.i.d.), 12 months): 3.85±0.47
- Mean treatment benefit relative to control on ADAS-cog (mild patients, LMTM monotherapy): 240%±41%
